{"source": "patent US6653330B2", "about": "“Amide-type triazole compounds” (Sankyo Company, Limited, priority 2000, dated 2003)"}
{"units": {"melting point": "°C"}}
{"compound": "C[C@@H](S[C@H]1CO[C@H](c2ccc(C(=O)Nc3ccc(CC#N)cc3)cc2)OC1)[C@](O)(Cn1cncn1)c1ccc(F)cc1F", "note": "[Example 7, 4′-(Cyanomethyl)-4-[trans-5-[[(1R,2R)-2-(2,4-difluorophenyl)-2-hydroxy-1-methyl-3-(1H-1,2,4-triazol-1-yl)propyl]thio]-1,3-dioxan-2-yl]benzanilide]", "melting point": 188}
{"compound": "C[C@@H](S[C@H]1CO[C@H](c2ccc(C(=O)Nc3ccc(C(F)(F)F)cc3)cc2)OC1)[C@](O)(Cn1cncn1)c1ccc(F)cc1F", "note": "[Example 11, 4-[trans-5-[[(1R,2R)-2-(2,4-Difluorophenyl)-2-hydroxy-1-methyl-3-(1H-1,2,4-triazol-1-yl)propyl]thio]-1,3-dioxan-2-yl]-4′-(trifluoromethyl)benzanilide]", "melting point": 210}
{"compound": "C[C@@H](S[C@H]1CO[C@H](c2ccc(C(=O)NCc3cccc4ccccc34)cc2)OC1)[C@](O)(Cn1cncn1)c1ccc(F)cc1F", "note": "[Example 29, 4-[trans-5-[[(1R,2R)-2-(2,4-Difluorophenyl)-2-hydroxy-1-methyl-3-(1H-1,2,4-triazol-1-yl)propyl]thio]-1,3-dioxan-2-yl]-N-[(1-naphthyl)methyl]benzamide]", "melting point": 97}
{"compound": "CC(=O)c1ccc(NC(=O)c2ccc([C@H]3OC[C@H](S[C@H](C)[C@](O)(Cn4cncn4)c4ccc(F)cc4F)CO3)cc2)cc1", "note": "[Example 22, 4′-Acetyl-4-[trans-5-[[(1R,2R)-2-(2,4-difluorophenyl)-2-hydroxy-1-methyl-3-(1H-1,2,4-triazol-1-yl)propyl]thio]-1,3-dioxan-2-yl]benzanilide]", "melting point": 171}
{"compound": "C[C@@H](S[C@H]1CO[C@H](c2ccc(C(=O)Nc3ccncc3)cc2)OC1)[C@](O)(Cn1cncn1)c1ccc(F)cc1F", "note": "[Example 17, 4-[trans-5-[[(1R,2R)-2-(2,4-Difluorophenyl)-2-hydroxy-1-methyl-3-(1H-1,2,4-triazol-1-yl)propyl]thio]-1,3-dioxan-2-yl]-N-(4-pyridyl)benzamide]", "melting point": 133}
{"compound": "C[C@@H](S[C@H]1CO[C@H](c2ccc(C(=O)Nc3ccc(F)cc3)cc2)OC1)[C@](O)(Cn1cncn1)c1ccc(F)cc1F", "note": "[Example 10, 4-[trans-5-[[(1R,2R)-2-(2,4-Difluorophenyl)-2-hydroxy-1-methyl-3-(1H-1,2,4-triazol-1-yl)propyl]thio]-1,3-dioxan-2-yl]-4′-fluorobenzanilide]", "melting point": 104}
{"compound": "C[C@@H](S[C@H]1CO[C@H](c2ccc(C(=O)Nc3ccc(OC(F)(F)F)cc3)cc2)OC1)[C@](O)(Cn1cncn1)c1ccc(F)cc1F", "note": "[Example 12, 4-[trans-5-[[(1R,2R)-2-(2,4-Difluorophenyl)-2-hydroxy-1-methyl-3-(1H-1,2,4-triazol-1-yl)propyl]thio]-1,3-dioxan-2-yl]-4′-(trifluoromethoxy)benzanilide]", "melting point": 180}
{"compound": "C[C@@H](S[C@H]1CO[C@H](c2ccc(C(=O)Nc3ccc(C#N)cc3F)cc2)OC1)[C@](O)(Cn1cncn1)c1ccc(F)cc1F", "note": "[Example 25, 4′-Cyano-2′-fluoro-4-[trans-5-[[(1R,2R)-2-(2,4-difluorophenyl)-2-hydroxy-1-methyl-3-(1H-1,2,4-triazol-1-yl)propyl]thio]-1,3-dioxan-2-yl]benzanilide]", "melting point": 136}
{"compound": "Cc1ccc(NC(=O)c2ccc([C@H]3OC[C@H](S[C@H](C)[C@](O)(Cn4cncn4)c4ccc(F)cc4F)CO3)cc2)cc1", "note": "[Example 14, 4-[trans-5-[[(1R,2R)-2-(2,4-Difluorophenyl)-2-hydroxy-1-methyl-3-(1H-1,2,4-triazol-1-yl)propyl]thio]-1,3-dioxan-2-yl]-4′-methylbenzanilide]", "melting point": 101}
{"compound": "C[C@@H](C[C@H]1CO[C@H](c2ccc(C(=O)Nc3ccc(C#N)cc3)cc2)OC1)[C@](O)(Cn1cncn1)c1ccc(F)cc1F", "note": "[Example 4, 4′-Cyano-4-[trans-5-[(2S,3R)-3-(2,4-difluorophenyl)-3-hydroxy-2-methyl-4-(1H-1,2,4-triazol-1-yl)butyl]-1,3-dioxan-2-yl]benzanilide]", "melting point": 159}
{"compound": "C[C@@H](S[C@H]1CO[C@H](c2ccc(C(=O)Nc3ccc(C(N)=O)cc3)cc2)OC1)[C@](O)(Cn1cncn1)c1ccc(F)cc1F", "note": "[Example 30, 4′-Carbamoyl-4-[trans-5-[[(1R,2R)-2-(2,4-difluorophenyl)-2-hydroxy-1-methyl-3-(1H-1,2,4-triazol-1-yl)propyl]thio]-1,3-dioxan-2-yl]benzanilide]", "melting point": 230}
{"compound": "C[C@@H](S[C@H]1CO[C@H](c2ccc(C(=O)Nc3nccs3)cc2)OC1)[C@](O)(Cn1cncn1)c1ccc(F)cc1F", "note": "[Example 27, 4-[trans-5-[[(1R,2R)-2-(2,4-Difluorophenyl)-2-hydroxy-1-methyl-3-(1H-1,2,4-triazol-1-yl)propyl]thio]-1,3-dioxan-2-yl]-N-(2-thiazolyl)benzamide]", "melting point": 108}
{"compound": "C[C@@H](S[C@H]1CO[C@H](c2ccc(C(=O)Nc3ccc(C#N)cc3)cc2)OC1)[C@](O)(Cn1cncn1)c1ccc(F)cc1F", "note": "[Example 2, 4′-Cyano-4-[trans-5-[[(1R,2R)-2-(2,4-difluorophenyl)-2-hydroxy-1-methyl-3-(1H-1,2,4-triazol-1-yl)propyl]thio]-1,3-dioxan-2-yl]benzanilide]", "melting point": 176}
{"compound": "CC(=O)Oc1ccc(NC(=O)c2ccc([C@H]3OC[C@H](S[C@H](C)[C@](O)(Cn4cncn4)c4ccc(F)cc4F)CO3)cc2)cc1", "note": "[Example 24, 4′-Acetoxy-4-[trans-5-[[(1R,2R)-2-(2,4-difluorophenyl)-2-hydroxy-1-methyl-3-(1H-1,2,4-triazol-1-yl)propyl]thio]-1,3-dioxan-2-yl]benzanilide]", "melting point": 127}
{"compound": "C[C@@H](S[C@H]1CO[C@H](c2ccc(C(=O)Nc3ccc(SC(F)(F)F)cc3)cc2)OC1)[C@](O)(Cn1cncn1)c1ccc(F)cc1F", "note": "[Example 13, 4-[trans-5-[[(1R,2R)-2-(2,4-Difluorophenyl)-2-hydroxy-1-methyl-3-(1H-1,2,4-triazol-1-yl)propyl]thio]-1,3-dioxan-2-yl]-4′-(trifluoromethylthio)benzanilide]", "melting point": 95}
{"compound": "C[C@@H](S[C@H]1CO[C@H](c2ccc(C(=O)Nc3ccc(C#N)c(Cl)c3)cc2)OC1)[C@](O)(Cn1cncn1)c1ccc(F)cc1F", "melting point": 115}
{"compound": "C[C@@H](S[C@H]1CO[C@H](c2cccc(C(=O)Nc3ccc(C#N)cc3)c2)OC1)[C@](O)(Cn1cncn1)c1ccc(F)cc1F", "note": "[Example 6, 4′-Cyano-3-[trans-5-[[(1R,2R)-2-(2,4-difluorophenyl)-2-hydroxy-1-methyl-3-(1H-1,2,4-triazol-1-yl)propyl]thio]-1,3-dioxan-2-yl]benzanilide]", "melting point": 105}
{"compound": "C[C@@H](S[C@H]1CO[C@H](c2ccc(C(=O)Nc3nc4ccccc4s3)cc2)OC1)[C@](O)(Cn1cncn1)c1ccc(F)cc1F", "note": "[Example 28, N-(Benzothiazol-2-yl)-4-[trans-5-[[(1R,2R)-2-(2,4-difluorophenyl)-2-hydroxy-1-methyl-3-(1H-1,2,4-triazol-1-yl)propyl]thio]-1,3-dioxan-2-yl]benzamide]", "melting point": 107}
{"compound": "C[C@@H](S[C@H]1CO[C@H](c2ccc(C(=O)Nc3ccc(Cl)cc3)cc2)OC1)[C@](O)(Cn1cncn1)c1ccc(F)cc1F", "note": "[Example 8, 4′-Chloro-4-[trans-5-[[(1R,2R)-2-(2,4-difluorophenyl)-2-hydroxy-1-methyl-3-(1H-1,2,4-triazol-1-yl)propyl]thio]-1,3-dioxan-2-yl]benzanilide]", "melting point": 210}
{"compound": "C[C@@H](S[C@H]1CO[C@H](c2ccc(C(=O)Nc3ccc([N+](=O)[O-])cc3)cc2)OC1)[C@](O)(Cn1cncn1)c1ccc(F)cc1F", "note": "[Example 18]", "melting point": 189}
{"compound": "C[C@@H](S[C@H]1CO[C@H](c2ccc(C(=O)Nc3ccc(Br)cc3)cc2)OC1)[C@](O)(Cn1cncn1)c1ccc(F)cc1F", "note": "[Example 15, 4′-Bromo-4-[trans-5-[[(1R,2R)-2-(2,4-difluorophenyl)-2-hydroxy-1-methyl-3-(1H-1,2,4-triazol-1-yl)propyl]thio]-1,3-dioxan-2-yl]benzanilide]", "melting point": 221}
{"compound": "C[C@@H](S[C@H]1CO[C@H](c2ccc(C(=O)Nc3ccc(C#N)cc3)cc2F)OC1)[C@](O)(Cn1cncn1)c1ccc(F)cc1F", "note": "[Example 5, 4′-Cyano-4-[trans-5-[[(1R,2R)-2-(2,4-difluorophenyl)-2-hydroxy-1-methyl-3-(1H-1,2,4-triazol-1-yl)propyl]thio]-1,3-dioxan-2-yl]-3-fluorobenzanilide]", "melting point": 110}
{"compound": "C[C@@H](S[C@H]1CO[C@H](c2ccc(C(=O)Nc3ccc(C#N)c4ccccc34)cc2)OC1)[C@](O)(Cn1cncn1)c1ccc(F)cc1F", "note": "[Example 19, N-(4-Cyano-1-naphthyl)-4-[trans-5-[[(1R,2R)-2-(2,4-difluorophenyl)-2-hydroxy-1-methyl-3-(1H-1,2,4-triazol-1-yl)propyl]thio]-1,3-dioxan-2-yl]benzamide]", "melting point": 109}
{"compound": "C[C@@H](S[C@H]1CO[C@H](c2ccc(C(=O)Nc3ccc(C#N)c(C#N)c3)cc2)OC1)[C@](O)(Cn1cncn1)c1ccc(F)cc1F", "note": "[Example 21, 3′,4′-Dicyano-4-[trans-5-[[(1R,2R)-2-(2,4-difluorophenyl)-2-hydroxy-1-methyl-3-(1H-1,2,4-triazol-1-yl)propyl]thio]-1,3-dioxan-2-yl]benzanilide]", "melting point": 182}
{"compound": "C[C@@H](S[C@H]1CO[C@H](c2ccc(C(=O)Nc3c(F)c(F)c(C#N)c(F)c3F)cc2)OC1)[C@](O)(Cn1cncn1)c1ccc(F)cc1F", "note": "[Example 20, 4′-Cyano-4-[trans-5-[[(1R,2R)-2-(2,4-difluorophenyl)-2-hydroxy-1-methyl-3-(1H-1,2,4-triazol-1-yl)propyl]thio]-1,3-dioxan-2-yl]-2′,3′,5′,6′-tetrafluorobenzanilide]", "melting point": 182}
